Bridges are numbered along the chain shown (N, C = ends). Where no end group is shown, it is not given here.
Tests used:
[1] = system: human renal proximal tubule epithelial cells (HK-2 human kidney cells); experiment: Urografin-induced injury (cytotoxicity) of HK-2 cells, lactate dehydrogenase activity in the culture medium; assay type: cell-based; conditions: for Urografin-induced cell death of human renal proximal tubule epithelial cells: various concentrations added to the medium
Experimental: (§1) The HK-2 human kidney cells were cultured in Keratinocyte-Serum Free Medium supplemented with recombinant epidermal growth factor and bovine pituitary extract. […] Each value represents the mean plus/minus the standard error of four determinations. **p<0.01 and *p<0.05 compared to the cells treated only with Urografin.
The HK-2 human kidney cells were cultured in Keratinocyte-Serum Free Medium supplemented with recombinant epidermal growth factor and bovine pituitary extract. […] Each value represents the mean plus/minus the standard error of eight determinations. **p<0.01 and *p<0.05 compared to the cells treated only with Urografin. The ID numbers in the figure correspond to the SEQ ID NO numbers in the Sequence Listing. ID1=PACAP38, ID2=PACAP27, ID4=[D-Ser^2]PACAP38, ID5=[Aib^2]PACAP38, ID6=[D-Ser^2,Lys^38-palmitoyl]PACAP38, ID8=[Ala^22]PACAP38, ID10=[Lys^34]PACAP38, ID38=N-acetyl[Pip^3]PACAP38, ID39=[Pip^3,Ala^14,17,Aib^16,28,Lys^34, D-Lys^38]PACAP38, and ID40=[Pip^3,Ala^15,17,Aib^16,28,Lys^34,D-Lys^38]PACAP38.
(§2) At the highest dose tested, PACAP38 reduced the cell death caused by Urografin by more than 70%.

[2] = system: human renal proximal tubule epithelial cells (HK-2 human kidney cells); experiment: Iohexol-induced inhibition of proliferation / loss of viable HK-2 cells, MTT conversion; assay type: cell-based; conditions: for loss of viable human renal proximal tubule epithelial cells caused by iohexol: various concentrations
Experimental: as §1, with “iohexol.” for “Urografin.”

[3] = system: human renal proximal tubule epithelial cells (HK-2 human kidney cells); experiment: Secretion of KIM-1 by HK-2 cells treated with Urografin or iohexol, ELISA of culture medium; assay type: cell-based; conditions: 10^−6 M PACAP38, ELISA (FIG. 5)
Experimental: The HK-2 human kidney cells were cultured in Keratinocyte-Serum Free Medium supplemented with recombinant epidermal growth factor and bovine pituitary extract. The effects of 10^−6 M PACAP38 on the excretion of KIM-1 were assessed by determining the concentration of KIM-1 in the culture medium with an enzyme-linked immunosorbent assay. Each value represents the mean plus/minus the standard error of three determinations. **p<0.01 and *p<0.05 compared to the cells treated only with Urografin.
as §2

[4] = system: male homozygous eNOS-deficient mice; experiment: Mouse model of contrast-induced nephropathy (Urografin i.v.), serum and kidney biomarkers; assay type: in vivo; conditions: 72 h
Experimental: (§3) Male homozygous eNOS-deficient mice were given a single intravenous injection of Urografin at a dose of 1.85 g iodine/kg body weight. The mice were deprived of water for 24 hours before the start of the experiment. Twenty micrograms of PACAP38 were given intraperitoneally 1 hour before the injection of Urografin and an additional dose was given 12 hours later. The control group of mice was injected intravenously with the same volume of saline as for the injections of Urografin and PACAP38 on the same schedule. The mice were euthanized 72 hours after the injection of Urografin. The concentration of cystatin C in serum was determined with an enzyme-linked immunosorbent assay. Each value represents the mean plus/minus the standard error of five or eight determinations. **p<0.01 compared to the group treated with Urografin and saline.
as §3, with “control” for “control group of”, “mice were” for “mice was”, “Urografin. Quantification” for “Urografin. The concentration”, “of mRNA levels for KIM-1” for “of cystatin C in serum”, “was made by real-time reverse transcriptase polymerase chain reaction analyses.” for “was determined with an enzyme-linked immunosorbent assay.”
as §3, with “control” for “control group of”, “mice were” for “mice was”, “Urografin. Quantification” for “Urografin. The concentration”, “of mRNA levels for netrin-1” for “of cystatin C in serum”, “was made by real-time reverse transcriptase polymerase chain reaction analyses.” for “was determined with an enzyme-linked immunosorbent assay.”
as §3, with “control” for “control group of”, “mice were” for “mice was”, “Urografin. Quantification” for “Urografin. The concentration”, “of mRNA levels for TNF-α” for “of cystatin C in serum”, “was made by real-time reverse transcriptase polymerase chain reaction analyses.” for “was determined with an enzyme-linked immunosorbent assay.”, “**p<0.01 and *p<0.05” for “**p<0.01”
Male homozygous eNOS-deficient mice were given a single intravenous injection of Urografin at a dose of 1.85 g iodine/kg body weight. The mice were deprived of water for 24 hours before the start of the experiment. Twenty micrograms of PACAP38 were given intraperitoneally 1 hour before the injection of Urografin and an additional dose was given 12 hours later. The control mice were injected intravenously with the same volume of saline as for the injections of Urografin and PACAP38 on the same schedule. The mice were euthanized 72 hours after the injection of Urografin. […]

[5] = rat, in vivo, iv; cited from earlier work
[6] = biological target: T1, PAC1 receptor (Homo sapiens, UniProt P41586); conditions: in words; cited from earlier work
T1 sequence (P41586 21-468): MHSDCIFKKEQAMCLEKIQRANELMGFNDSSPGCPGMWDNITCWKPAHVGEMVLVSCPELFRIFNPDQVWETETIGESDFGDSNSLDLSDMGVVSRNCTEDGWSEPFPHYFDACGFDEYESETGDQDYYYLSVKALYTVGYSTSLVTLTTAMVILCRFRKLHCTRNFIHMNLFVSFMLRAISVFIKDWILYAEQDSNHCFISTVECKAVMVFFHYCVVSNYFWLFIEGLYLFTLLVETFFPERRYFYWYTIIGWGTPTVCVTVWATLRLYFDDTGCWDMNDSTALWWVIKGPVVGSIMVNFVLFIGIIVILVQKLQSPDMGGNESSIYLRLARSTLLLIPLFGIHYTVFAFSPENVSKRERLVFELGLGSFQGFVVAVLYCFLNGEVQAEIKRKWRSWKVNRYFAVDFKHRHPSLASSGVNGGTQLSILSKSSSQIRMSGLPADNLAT

## PACAP38
[1]; 10^−8 M (p<0.05), 10^−7 M (p<0.01) and 10^−6 M (p<0.01) (FIG. 2)
  potency against Urografin-induced cell injury compared with VIP: significantly more potent than VIP
[1]; highest dose tested, HK-2 cells, LDH in medium (FIG. 2)
  reduction of the cell death caused by Urografin: more than 70%
[1]; LDH in medium (FIG. 2)
  Urografin-induced cell death of human renal proximal tubule epithelial cells: significant dose-dependent reduction
[2]; 10^−7 M and 10^−6 M (FIG. 4)
  potency as renoprotectant against iohexol compared with VIP: significantly more potent than VIP
[2]; highest dose tested, MTT (FIG. 4)
  loss of viable human renal proximal tubule epithelial cells caused by iohexol at the highest dose: almost completely prevented
[2]; MTT (FIG. 4)
  loss of viable human renal proximal tubule epithelial cells caused by iohexol: significant dose-dependent reduction
[3]
  Urografin-induced secretion of KIM-1 into the medium: significantly reduced
  iohexol-induced secretion of KIM-1 into the medium: significantly reduced
[4]; 20 μg i.p. 1 h before and 12 h after Urografin 1.85 g iodine/kg i.v., ELISA (FIG. 6)
  Urografin-induced increase in serum levels of cystatin C: reversed the increases
[4]; 20 μg i.p. 1 h before and 12 h after Urografin, ELISA (FIG. 16)
  Urografin-induced increase in kidney levels of TNF-α protein: reversed the increases
[4]; 20 μg i.p. 1 h before and 12 h after Urografin, ELISA (FIG. 17)
  Urografin-induced increase in kidney levels of TGF-β1 protein: reversed the increases
[4]; 20 μg i.p. 1 h before and 12 h after Urografin, ELISA (FIG. 18)
  Urografin-induced increase in kidney levels of MCP-1 protein: reversed the increases
[4]; 20 μg i.p. 1 h before and 12 h after Urografin, ELISA (FIG. 19)
  Urografin-induced increase in kidney levels of IFN-γ protein: reversed the increases
[4]; 20 μg i.p. 1 h before and 12 h after Urografin, LC-MS/MS (FIG. 11)
  Urografin-induced increase in serum levels of creatinine: reversed the increases
[4]; 20 μg i.p. 1 h before and 12 h after Urografin, real-time RT-PCR (FIG. 7)
  Urografin-induced increase in kidney levels of KIM-1 mRNA: reversed the increases
[4]; 20 μg i.p. 1 h before and 12 h after Urografin, real-time RT-PCR (FIG. 8)
  Urografin-induced increase in kidney levels of netrin-1 mRNA: reversed the increases
[4]; 20 μg i.p. 1 h before and 12 h after Urografin, real-time RT-PCR (FIG. 9)
  Urografin-induced increase in kidney levels of TNF-α mRNA: reversed the increases
[4]; 20 μg i.p. 1 h before and 12 h after Urografin, real-time RT-PCR (FIG. 10)
  Urografin-induced increase in kidney levels of iNOS mRNA: reversed the increases
[4]; 20 μg i.p. 1 h before and 12 h after Urografin, real-time RT-PCR (FIG. 12)
  Urografin-induced increase in kidney levels of Nogo-B1 mRNA: reversed the increases
[4]; 20 μg i.p. 1 h before and 12 h after Urografin, real-time RT-PCR (FIG. 13)
  Urografin-induced increase in kidney levels of TGF-β1 mRNA: reversed the increases
[4]; 20 μg i.p. 1 h before and 12 h after Urografin, real-time RT-PCR (FIG. 14)
  Urografin-induced increase in kidney levels of Nox-4 mRNA: reversed the increases
[4]; 20 μg i.p. 1 h before and 12 h after Urografin, real-time RT-PCR (FIG. 15)
  Urografin-induced increase in kidney levels of Nox-2 mRNA: reversed the increases

## [^125I]-PACAP38: radioiodinated PACAP38 used in a cited rat half-life study
[5]
  half-life in the bloodstream: 5 to 6 min

## VIP (HSDAVFTDNYTRLRKQMAVKKYLNSILN-NH2; listed as Homo sapiens)
[1]; LDH in medium (FIG. 2)
  Urografin-induced cell death of human renal proximal tubule epithelial cells: significant dose-dependent reduction
[2]; MTT (FIG. 4)
  loss of viable human renal proximal tubule epithelial cells caused by iohexol: significant dose-dependent reduction

B1: Maxadilan: 61-amino-acid peptide with two disulfide bridges from salivary glands of the sand fly Lutzomyia longipalpis; conformational analog of PACAP (peptide, listed as Lutzomyia longipalpis)
chain: CDATCQFRKAIEDCRKKAHHSDVLQTSVQTTATFTSMDTSQLPGSGVFKECMKQKAKEFKA
modifications: disulfide 1-5; disulfide 14-51 (inferred)
notes: 61-amino-acid peptide with two disulfide bridges from salivary glands of the sand fly Lutzomyia longipalpis; conformational analog of PACAP
[6]
  binding to the PAC1 receptor: high affinity
